Measurements reported in patent US8889671B2, “Compounds and methods for treating bacterial infections” (AstraZeneca AB, priority 2013, dated 2014).
In brackets after ≈: the same amount, converted by molar mass. Like-named read-outs stand apart in the source and are kept apart here.

Legend:
[1] = biological target: Escherichia coli DNA gyrase A/B tetramer (Escherichia coli (strain K12), UniProt P0AES4+P0AES6); test: DNA gyrase supercoiling activity fluorescence polarisation assay; type: biochemical; settings: Eco Gyr FP Mean IC50, E. coli DNA gyrase supercoiling, 0.3 mM ATP
Outline: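 IC50 derived by nonlinear regression from BODIPY-FL fluorescence anisotropy, read 60 min after quenching with labelled triplex-forming probe (pH 3.5). Reaction: 5 nM gyrase tetramer, 130 micrograms/mL relaxed plasmid, 0.3 mM ATP, 4 mM MgCl2, pH 7.5, typically 30 min at ambient temperature, 5-10 compound concentrations.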

Streptococcus pneumoniae = test: Susceptibility testing (MIC) Assay 1, broth microdilution; type: cell-based
Staphylococcus aureus = test: as above; type: cell-based; settings: Staphylococcus aureus
Streptococcus pyogenes = test: as above; type: cell-based; settings: Streptococcus pyogenes, Streptococcus pyrgenes, in vivo strain; read-out: Spy MIC
Escherichia coli = test: Susceptibility testing (MIC) Assay 2, broth microdilution; type: cell-based; settings: K12, read-out: Eco MIC
Klebsiella pneumoniae = test: as above; type: cell-based; settings: clinical isolate, mucoid, read-out: Kpn MIC
Haemophilus influenzae = test: as above; type: cell-based; settings: ATCC51907, Haemophilus influenzae, ATCC 51907, in vivo strain, read-out: Hin MIC
Pseudomonas aeruginosa = test: as above; type: cell-based; settings: PAO1, read-out: Pae MIC
[2] = in vivo strain (footnote b), read-out: Spn(b) MIC
[3] = in vivo strain (footnote c), read-out: Spn(c) MIC
[4] = Staphylococcus aureus in vivo strain, MSQS, read-out: Sau(d) MIC
[5] = in vivo strain, MRQR, read-out: Sau(e) MIC

Compound	IC50 [1] [nM]	MIC (Streptococcus pneumoniae; [2]) [µM]	MIC (Streptococcus pneumoniae; [3]) [µM]	MIC (Staphylococcus aureus; [4]) [µM]	MIC (Staphylococcus aureus; [5]) [µM]	MIC (Staphylococcus aureus; serum, read-out: Sau(f) MIC) [µM]	MIC (Streptococcus pyogenes) [µM]	MIC (Escherichia coli) [µM]	MIC (Klebsiella pneumoniae) [µM]	MIC (Haemophilus influenzae) [µM]	MIC (Pseudomonas aeruginosa) [µM]
CC[C@H]1CN(c2noc3c(F)c4c(cc23)CC2(C(=O)NC(=O)NC2=O)[C@H]2[C@H](C)O[C@H](C)CN42)C(=O)O1 [Example 13, (2R,4S,4aS)-8-[(5S)-5-Ethyl-2-oxo-1,3-oxazolidin-3-yl]-11-fluoro-2,4-dimethyl-1,2,4,4a-tetrahydro-2′H,6H-spiro[1,4-oxazino[4,3-a][1,2]oxazolo[4,5-g]quinoline-5,5′-pyrimidine]-2′,4′,6′(1′H,3′H)-trione]	510	0.78 (≈ 0.391 µg/mL)	0.78 (≈ 0.391 µg/mL)	0.39 (≈ 0.196 µg/mL)	0.78 (≈ 0.391 µg/mL)	0.78 (≈ 0.391 µg/mL)	0.39 (≈ 0.196 µg/mL)	12 (≈ 6.02 µg/mL)	200 (≈ 100 µg/mL)	0.78 (≈ 0.391 µg/mL)	> 200
C=C[C@H]1COC(=O)N1c1noc2c(F)c3c(cc12)CC1(C(=O)NC(=O)NC1=O)[C@H]1[C@H](C)O[C@H](C)CN31 [Example 39, (2R,4S,4aS)-11-Fluoro-2,4-dimethyl-8-((S)-2-oxo-4-vinyloxazolidin-3-yl)-2,4,4a,6-tetrahydro-1H,1′H-spiro[isoxazolo[4,5-g][1,4]oxazino[4,3-a]quinoline-5,5′-pyrimidine]-2′,4′,6′(3′H)-trione]	97	0.78 (≈ 0.39 µg/mL)	0.78 (≈ 0.39 µg/mL)	0.39 (≈ 0.195 µg/mL)	1.6 (≈ 0.799 µg/mL)	1.6 (≈ 0.799 µg/mL)	0.39 (≈ 0.195 µg/mL)	25 (≈ 12.5 µg/mL)	200 (≈ 99.9 µg/mL)	0.39 (≈ 0.195 µg/mL)	> 200
C[C@@H]1CN2c3c(cc4c(N5C(=O)OC[C@@H]5C5CC5)noc4c3F)CC3(C(=O)NC(=O)NC3=O)[C@H]2[C@H](C)O1 [Example 52]	900	1.6 (≈ 0.822 µg/mL)	1.6 (≈ 0.822 µg/mL)	0.78 (≈ 0.401 µg/mL)	1.6 (≈ 0.822 µg/mL)	3.1 (≈ 1.59 µg/mL)	0.78 (≈ 0.401 µg/mL)	25 (≈ 12.8 µg/mL)	200 (≈ 103 µg/mL)	0.78 (≈ 0.401 µg/mL)	> 200
CCOC[C@H]1COC(=O)N1c1noc2c(F)c3c(cc12)CC1(C(=O)NC(=O)NC1=O)[C@H]1[C@H](C)O[C@H](C)CN31 [Example 49, (2R,4S,4aS)-8-[(4S)-4-(Ethoxymethyl)-2-oxo-1,3-oxazolidin-3-yl]-11-fluoro-2,4-dimethyl-1,2,4,4a-tetrahydro-2′H,6H-spiro[1,4-oxazino[4,3-a][1,2]oxazolo[4,5-g]quinoline-5,5′-pyrimidine]-2′,4′,6′(1′H,3′H)-trione]	380	0.78 (≈ 0.415 µg/mL)	1.6 (≈ 0.85 µg/mL)	0.39 (≈ 0.207 µg/mL)	0.78 (≈ 0.415 µg/mL)	0.78 (≈ 0.415 µg/mL)	0.78 (≈ 0.415 µg/mL)	50 (≈ 26.6 µg/mL)	> 200	1.6 (≈ 0.85 µg/mL)	> 200
C[C@@H]1CN2c3c(cc4c(N5C[C@H](c6ccccn6)OC5=O)noc4c3F)CC3(C(=O)NC(=O)NC3=O)[C@H]2[C@H](C)O1 [Example 53, (2R,4S,4aS)-11-Fluoro-2,4-dimethyl-8-((R)-2-oxo-5-(pyridin-2-yl)oxazolidin-3-yl)-2,4,4a,6-tetrahydro-1H,1′H-spiro[isoxazolo[4,5-g][1,4]oxazino[4,3-a]quinoline-5,5′-pyrimidine]-2′,4′,6′(3′H)-trione]	380	0.39 (≈ 0.215 µg/mL)	0.55 (≈ 0.303 µg/mL)	0.098 (≈ 0.0539 µg/mL)	0.39 (≈ 0.215 µg/mL)	0.55 (≈ 0.303 µg/mL)	0.464 (≈ 0.255 µg/mL)	35 (≈ 19.3 µg/mL)	> 200	1.1 (≈ 0.606 µg/mL)	> 200
C[C@@H]1CN2c3c(cc4c(N5C[C@@H](C#N)OC5=O)noc4c3F)CC3(C(=O)NC(=O)NC3=O)[C@H]2[C@H](C)O1 [Example 76, (5S)-3-[(2R,4S,4aS)-11-fluoro-2,4-dimethyl-2′,4′,6′-trioxo-1,1′,2,3′,4,4′,4a,6′-octahydro-2′H,6H-spiro[1,4-oxazino[4,3-a][1,2]oxazolo[4,5-g]quinoline-5,5′-pyrimidin]-8-yl]-2-oxo-1,3-oxazolidine-5-carbonitrile]	550	0.39 (≈ 0.194 µg/mL)	0.78 (≈ 0.389 µg/mL)	0.39 (≈ 0.194 µg/mL)	1.6 (≈ 0.797 µg/mL)	0.78 (≈ 0.389 µg/mL)	0.39 (≈ 0.194 µg/mL)	50 (≈ 24.9 µg/mL)	> 200	0.78 (≈ 0.389 µg/mL)	> 200
COC[C@@H]1CN(c2noc3c(F)c4c(cc23)CC2(C(=O)NC(=O)NC2=O)[C@H]2[C@H](C)O[C@H](C)CN42)C(=O)O1 [Example 35]	310	0.39 (≈ 0.202 µg/mL)	0.39 (≈ 0.202 µg/mL)	< 0.2	1.6 (≈ 0.828 µg/mL)	0.39 (≈ 0.202 µg/mL)	0.2 (≈ 0.103 µg/mL)	50 (≈ 25.9 µg/mL)	> 200	0.78 (≈ 0.404 µg/mL)	> 200
